The values that follow come from patent publication US10322087B2, “Targeted liposomal delivery of cGMP analogues” (priority 2015, dated 2019).

Entries after “also recorded” stand apart in the source; their conditions may differ.

Data set [1] concerns rd1 and rd2 photoreceptors. To be noted: in vitro and in vivo mouse retinitis pigmentosa models; cited from earlier work.
In data set [2] the target is PKG1α (Homo sapiens, UniProt Q13976). Nature of the data set: Inhibitory constants for DF003, PKG1α. The format is biochemical. The source says:
(§1) The active compound DF003 is an analogue of cGMP, blocking PKG activity with high specificity. This is particularly true for the PKG1α and PKG1β isoforms, while PKG2 is less well inhibited. The inhibitory constants for the two other potential targets CNGC and protein kinase A (PKA) isoforms 1 and 2 are 2-3 log units higher (Table 2) than those for PKG isoforms. cGMP and its analogues are targeting PKG and CNGC but could potentially also interfere with PKA, PDE or even HCN channel activity. The table gives the inhibitory constants (Ki) of DF003 for these targets and (where available) the IC50 values.

For data set [3], the target named is PKG1β (Homo sapiens, UniProt Q13976). Put plainly: Inhibitory constants for DF003, PKG1β. It counts as biochemical.
Chain of PKG1β (Q13976 1-686 isoform Q13976-2): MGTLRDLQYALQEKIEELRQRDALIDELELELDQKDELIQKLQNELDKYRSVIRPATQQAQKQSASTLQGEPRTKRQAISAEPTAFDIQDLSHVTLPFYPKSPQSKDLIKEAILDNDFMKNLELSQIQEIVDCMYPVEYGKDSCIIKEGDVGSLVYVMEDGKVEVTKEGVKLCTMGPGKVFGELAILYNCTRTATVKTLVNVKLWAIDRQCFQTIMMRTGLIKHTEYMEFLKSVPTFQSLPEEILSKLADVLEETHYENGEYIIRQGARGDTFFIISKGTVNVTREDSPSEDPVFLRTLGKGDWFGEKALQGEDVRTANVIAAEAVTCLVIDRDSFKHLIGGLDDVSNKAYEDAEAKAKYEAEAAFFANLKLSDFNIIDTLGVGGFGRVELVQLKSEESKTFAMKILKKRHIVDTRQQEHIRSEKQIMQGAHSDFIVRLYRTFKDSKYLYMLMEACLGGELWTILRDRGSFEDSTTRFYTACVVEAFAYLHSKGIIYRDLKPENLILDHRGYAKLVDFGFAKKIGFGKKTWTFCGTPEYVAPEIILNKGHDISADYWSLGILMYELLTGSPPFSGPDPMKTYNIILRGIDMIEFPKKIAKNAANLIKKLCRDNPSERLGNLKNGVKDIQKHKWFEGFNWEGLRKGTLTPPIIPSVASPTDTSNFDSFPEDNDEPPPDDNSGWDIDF
From the text: as §1

For data set [4], the target named is PKG2 (Homo sapiens, UniProt Q13237). Put plainly: Inhibitory constants for DF003, PKG2. It counts as biochemical.
Chain of PKG2 (Q13237 whole entry): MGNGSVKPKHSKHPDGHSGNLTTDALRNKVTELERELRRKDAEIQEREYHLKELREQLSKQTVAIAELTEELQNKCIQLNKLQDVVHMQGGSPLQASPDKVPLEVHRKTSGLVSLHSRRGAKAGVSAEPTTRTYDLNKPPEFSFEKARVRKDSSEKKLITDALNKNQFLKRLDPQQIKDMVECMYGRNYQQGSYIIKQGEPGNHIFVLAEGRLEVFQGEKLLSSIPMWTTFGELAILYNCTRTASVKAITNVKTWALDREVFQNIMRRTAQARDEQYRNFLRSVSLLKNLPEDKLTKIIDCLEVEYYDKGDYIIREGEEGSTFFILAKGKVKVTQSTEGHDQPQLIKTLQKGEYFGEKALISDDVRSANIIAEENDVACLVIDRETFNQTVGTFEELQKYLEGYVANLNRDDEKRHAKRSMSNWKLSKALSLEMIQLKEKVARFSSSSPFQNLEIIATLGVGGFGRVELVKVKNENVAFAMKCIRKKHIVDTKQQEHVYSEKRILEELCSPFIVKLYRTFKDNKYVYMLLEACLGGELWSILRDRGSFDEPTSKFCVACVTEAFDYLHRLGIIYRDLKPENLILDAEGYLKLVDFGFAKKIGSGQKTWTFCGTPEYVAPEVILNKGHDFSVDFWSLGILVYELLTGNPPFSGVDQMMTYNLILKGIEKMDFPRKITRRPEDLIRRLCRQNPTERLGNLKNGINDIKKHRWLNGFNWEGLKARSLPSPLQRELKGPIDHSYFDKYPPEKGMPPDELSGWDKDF
From the text: as §1

Data set [5] deals with CNGC. Nature of the data set: Inhibitory constants for DF003, CNGC. It counts as biochemical.
From the text: as §1

The target of data set [6] is PKA1. Nature of the data set: Inhibitory constants for DF003, PKA1. The format is biochemical.
From the text: as §1

The target in data set [7] is PKA2. Put plainly: Inhibitory constants for DF003, PKA2. The format is biochemical.
From the text: as §1

The target of data set [8] is PDE1B (Homo sapiens, UniProt Q01064). Nature of the data set: Inhibitory constants for DF003, PDE1B. It counts as biochemical.
Chain of PDE1B (Q01064 whole entry, species assumed): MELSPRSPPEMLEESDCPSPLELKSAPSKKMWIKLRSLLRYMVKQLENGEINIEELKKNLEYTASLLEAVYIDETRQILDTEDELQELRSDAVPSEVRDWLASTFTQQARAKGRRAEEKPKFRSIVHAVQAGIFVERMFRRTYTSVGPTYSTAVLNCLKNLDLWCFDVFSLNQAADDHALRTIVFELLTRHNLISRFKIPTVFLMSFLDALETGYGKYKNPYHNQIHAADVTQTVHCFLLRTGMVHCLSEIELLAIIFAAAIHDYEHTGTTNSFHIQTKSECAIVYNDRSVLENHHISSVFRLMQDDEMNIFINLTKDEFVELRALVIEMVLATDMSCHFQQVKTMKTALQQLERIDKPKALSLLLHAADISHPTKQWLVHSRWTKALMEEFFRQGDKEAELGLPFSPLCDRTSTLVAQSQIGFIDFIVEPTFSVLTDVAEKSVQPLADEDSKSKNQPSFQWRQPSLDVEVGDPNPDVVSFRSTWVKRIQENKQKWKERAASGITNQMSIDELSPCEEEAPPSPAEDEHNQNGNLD
From the text: as §1

In data set [9] the target is PDE2 (Homo sapiens, UniProt O00408). Nature of the data set: Inhibitory constants for DF003, PDE2. It counts as biochemical.
Chain of PDE2 (O00408 whole entry): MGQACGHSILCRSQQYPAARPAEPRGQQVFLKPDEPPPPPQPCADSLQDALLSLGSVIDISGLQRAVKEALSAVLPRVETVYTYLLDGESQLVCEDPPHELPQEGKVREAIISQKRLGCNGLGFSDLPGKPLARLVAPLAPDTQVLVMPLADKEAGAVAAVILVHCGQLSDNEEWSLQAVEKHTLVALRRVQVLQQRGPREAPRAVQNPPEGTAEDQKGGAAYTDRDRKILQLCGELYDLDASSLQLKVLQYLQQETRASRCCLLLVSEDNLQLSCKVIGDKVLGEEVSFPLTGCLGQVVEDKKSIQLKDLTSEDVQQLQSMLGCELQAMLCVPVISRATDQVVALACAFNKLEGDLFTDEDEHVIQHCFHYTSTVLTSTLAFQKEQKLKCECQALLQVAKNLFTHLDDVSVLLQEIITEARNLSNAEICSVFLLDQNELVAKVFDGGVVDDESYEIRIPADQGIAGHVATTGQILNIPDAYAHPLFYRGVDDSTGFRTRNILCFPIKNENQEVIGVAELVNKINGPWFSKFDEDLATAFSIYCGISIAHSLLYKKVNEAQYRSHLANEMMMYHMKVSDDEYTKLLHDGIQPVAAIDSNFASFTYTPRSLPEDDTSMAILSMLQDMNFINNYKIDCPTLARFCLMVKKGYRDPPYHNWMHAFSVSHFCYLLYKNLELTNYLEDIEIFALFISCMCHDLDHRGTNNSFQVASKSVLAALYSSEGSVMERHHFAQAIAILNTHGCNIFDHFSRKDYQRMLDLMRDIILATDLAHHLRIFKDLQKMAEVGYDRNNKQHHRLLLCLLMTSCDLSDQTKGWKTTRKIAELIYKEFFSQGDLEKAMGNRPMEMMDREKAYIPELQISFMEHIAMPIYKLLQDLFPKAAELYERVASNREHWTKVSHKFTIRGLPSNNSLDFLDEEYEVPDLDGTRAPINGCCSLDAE
From the text: as §1

For data set [10], the target named is PDE4. Put plainly: Inhibitory constants for DF003, PDE4. The format is biochemical.
From the text: as §1

Data set [11] has as its target PDE5 (Homo sapiens, UniProt O76074). Nature of the data set: Inhibitory constants for DF003, PDE5. The format is biochemical.
From the text: as §1

For data set [12], the target named is PDE10 (Homo sapiens, UniProt Q9Y233). Put plainly: Inhibitory constants for DF003, PDE10. The format is biochemical.
Chain of PDE10 (Q9Y233 whole entry): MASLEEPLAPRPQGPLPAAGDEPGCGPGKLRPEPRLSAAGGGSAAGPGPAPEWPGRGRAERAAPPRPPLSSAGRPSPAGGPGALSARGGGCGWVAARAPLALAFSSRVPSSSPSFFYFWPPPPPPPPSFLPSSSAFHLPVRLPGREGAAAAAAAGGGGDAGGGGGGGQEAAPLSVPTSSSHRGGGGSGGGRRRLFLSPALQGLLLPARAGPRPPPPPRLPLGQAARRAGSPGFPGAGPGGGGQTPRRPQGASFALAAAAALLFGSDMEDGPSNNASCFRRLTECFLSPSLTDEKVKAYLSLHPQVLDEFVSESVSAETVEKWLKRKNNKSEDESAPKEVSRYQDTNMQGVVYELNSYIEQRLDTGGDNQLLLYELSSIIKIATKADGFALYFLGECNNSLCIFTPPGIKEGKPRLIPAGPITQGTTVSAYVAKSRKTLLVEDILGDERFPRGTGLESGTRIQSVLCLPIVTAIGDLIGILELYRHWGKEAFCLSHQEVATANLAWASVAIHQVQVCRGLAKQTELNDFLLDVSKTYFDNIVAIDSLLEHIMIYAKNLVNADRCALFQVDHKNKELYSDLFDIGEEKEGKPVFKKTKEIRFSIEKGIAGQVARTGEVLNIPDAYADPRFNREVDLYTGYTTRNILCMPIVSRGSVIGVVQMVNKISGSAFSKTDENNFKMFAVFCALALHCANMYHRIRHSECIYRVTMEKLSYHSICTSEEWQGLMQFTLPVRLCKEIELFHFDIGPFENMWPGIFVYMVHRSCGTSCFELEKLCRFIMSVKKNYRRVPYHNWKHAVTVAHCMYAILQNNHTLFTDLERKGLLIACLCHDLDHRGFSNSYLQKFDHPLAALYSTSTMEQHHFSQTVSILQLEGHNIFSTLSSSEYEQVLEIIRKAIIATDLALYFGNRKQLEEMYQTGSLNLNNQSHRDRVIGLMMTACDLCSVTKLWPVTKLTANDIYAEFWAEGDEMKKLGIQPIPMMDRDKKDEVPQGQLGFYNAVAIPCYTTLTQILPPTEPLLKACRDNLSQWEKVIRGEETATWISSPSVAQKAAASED
From the text: as §1

Data set [13] has as its system rd1 photoreceptor-like cells. Put plainly: Primary retinal cell culture, cell death (Ethidium homodimer), rd1. The format is cell-based, mouse. As for the experimental part: (§2) Different doses of DF003 and LP-DF003 were tested in vitro on a primary culture of retinal cells derived from the rd1 mouse model. About 20-30% of the primary cells can be differentiated into rod photoreceptors (Demontis et al. 2012, PLoS One. 7, e33338; Giordano et al. 2007, Mol. Vis. 13, 1842-1850). Retinal stem cells from adult wt and rd1 mice were isolated from the ciliary epithelium after treatment with 2 mg/ml dispase (20 min) followed by 1.33 mg/ml trypsin 0.67 mg/ml, hyaluronidase and 0.13 mg/ml kynurenic acid (10 min) and cultured for a week in serum free medium containing 20 ng/ml basic FGF, 2 μg/ml heparin, 0.6% glucose, N2 hormone mix in DMEM-F12 to form neurospheres (Giordano et al., 2007, supra). Retinal neurospheres were then plated on glass slides coated with extracellular matrix (ECM, Sigma) in DMEM-F12 supplemented with 20 ng/ml FGF for 4 days. […] Cell death was evaluated by staining of cells for 2 minutes with 2 μM Ethidium homodimer and counterstaining of nuclei with DAPI (4′,6-diamidino-2-phenylindole, Sigma). Slides were mounted with mowioll 4-88 (Sigma) and analysed at a Zeiss Axioskop 40 fluorescence microscope. Ethidium homodimer positive cells were counted in each slide and expressed as percentages of the total number of cells (DAPI stained) per slide. […]

For data set [14], the system named is wild-type (wt) photoreceptor-like cells. Nature of the data set: Primary retinal cell culture, wild-type. It counts as cell-based, mouse. To be noted: up to the highest concentration used, 50 μM. How it is done:
as §2

Data set [15] concerns organotypic rd1 retinal explant cultures. Nature of the data set: Organotypic retinal explant culture, rd1. The format is cell-based, mouse. An excerpt: (§3) For biochemical analyses and comparisons between models and wt tissues, we typically use material from ages corresponding to the onset of retinal degeneration. Retinal tissue is obtained from post-natal day 5 (PN5) animals, from which, after sacrifice, the eyes are enucleated and retinae cultured as retinal explants. In brief, the retina with the retinal pigment epithelium (RPE) still attached is isolated and subsequently transferred to Millicell culture dish filter inserts (Millipore AB, Solna, Sweden; PIHA03050), with the RPE layer facing the culturing membrane. The explants are then incubated in custom made R16 nutrient medium at 37° C. The nutrient medium has a volume of 1.5 ml per dish, which is replaced with fresh medium usually every second day (unless the exact culturing paradigm requires otherwise) during the culturing period.
(§4) PN5 explants were allowed to adjust to culture conditions for two days in vitro (DIV), after which they were subjected to treatments of interest. […]
(§5) In both cases the results were captured by means of a microscope and digital camera, analysed manually or semi-automatically, and this was then followed by calculations for statistical significance of the recorded data in principle as published previously (Arango-Gonzalez et al. 2014, PLoS One. 9, e112142).

For data set [16], the system named is wt explant cultures. Nature of the data set: Organotypic retinal explant culture, wt. The format is cell-based, mouse. To be noted: up to 50 μM.
From the text: as §3, §4, §5

For data set [17], the system named is retinal explants of rd10 model. Put plainly: Organotypic retinal explant culture, rd10. It counts as cell-based, mouse. Conditions: data not shown.
From the text: as §3, §4, §5

Data set [18] relates to retinal explants of rd2 mouse model. Nature of the data set: Organotypic retinal explant culture, rd2. The format is cell-based. Conditions: data not shown.
From the text: as §3, §4, §5

Data set [19] deals with rd1 mice. Nature of the data set: In vivo retinitis pigmentosa model, rd1 mouse. To be noted: PN14, intraperitoneal 50 mg/kg once per day, vs untreated rd1. As for the experimental part: Before treatment with drug or drug/DDS combinations, the animals were anesthetized with diethyl-ether. For systemic treatment, 0.9% NaCl solution containing liposomal DDS/drug formulation were injected either into the tail vein (caudal vein; intravenous; i.v.; 50 μl) or into the peritoneum (intraperitoneal; i.p.; 200 μl) of the anesthetized animal. In rd10 mice, a local intravitreal (IVT) treatment was also tested. Here, the animals received a 0.5 μl injection into the vitreous body of one eye, while the other eye was kept as untreated, contralateral control. For both i.p. and IVT treatments a liposomal formulation not containing DF003 (i.e. “empty” liposomes) was used as an additional control.
The in vivo treatment was performed initially on rd1 animals, but later extended to other animal models (rd2, rd10, cpfl1, Rho P23H). […]
At various post-treatment time-points (see Table 1), in vivo optic coherence tomography (OCT) and scanning laser ophthalmoscopy (SLO) analysis was used for direct, non-invasive imaging of retinal morphology (OCT) and of fluorescently labelled drugs (SLO) or drug/DDS combinations to determine the distribution and uptake of drug in the retina. In addition, retinal function was assessed using electroretinographic (ERG) recordings. […]

The nature of data set [20]: Pharmacokinetic study in adult rats. Conditions: rat, blood, 20 mg/kg, single injection 20 mg/kg, read-out: in vivo half-life. As for the experimental part: A pharmacokinetic study was performed in adult rats (3 months old) that received a single injection of either free DF003 or LP-DF003 at an initial dose of 20 mg/kg.

Chain of PKG1α (Q13976 whole entry, canonical isoform): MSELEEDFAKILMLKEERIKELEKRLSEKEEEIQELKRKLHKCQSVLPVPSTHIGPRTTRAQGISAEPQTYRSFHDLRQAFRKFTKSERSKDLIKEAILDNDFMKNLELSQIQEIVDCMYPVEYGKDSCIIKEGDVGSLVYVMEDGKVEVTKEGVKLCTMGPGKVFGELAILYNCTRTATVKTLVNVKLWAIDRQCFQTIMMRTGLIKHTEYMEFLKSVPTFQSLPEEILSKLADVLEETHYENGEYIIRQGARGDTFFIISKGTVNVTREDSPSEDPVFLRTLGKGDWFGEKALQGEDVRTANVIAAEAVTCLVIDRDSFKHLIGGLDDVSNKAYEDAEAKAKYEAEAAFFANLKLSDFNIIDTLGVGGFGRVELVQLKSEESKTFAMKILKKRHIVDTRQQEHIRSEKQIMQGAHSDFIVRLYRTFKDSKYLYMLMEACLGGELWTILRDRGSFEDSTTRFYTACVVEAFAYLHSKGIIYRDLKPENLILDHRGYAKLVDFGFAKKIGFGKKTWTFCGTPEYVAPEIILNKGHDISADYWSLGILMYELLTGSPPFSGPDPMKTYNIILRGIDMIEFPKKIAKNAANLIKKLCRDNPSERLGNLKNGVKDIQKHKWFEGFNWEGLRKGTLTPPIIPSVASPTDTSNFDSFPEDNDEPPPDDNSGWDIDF

Take `Nc1nc2c(nc(Br)n2[C@@H]2O[C@@H]3COP(O)(=S)O[C@H]3[C@H]2O)c(=O)[nH]1` (stereo partly drawn) [Rp-8-Br-cGMPS]: in data set [1], the “protection of rd1 and rd2 photoreceptors” value was “some protection”.
Consider `O=c1c2nc(Br)n(C3OC4COP(O)(=S)OC4C3O)c2nc2[nH]c(-c3ccccc3)cn12` [DF003, Sodium, 3-[(4 aR,6R,7R,7aS)-7-hydroxy-2-oxido-2-sulfanylidene-4a,6,7,7a-tetrahydro-4H-furo [3,2-d] [1,3,2]dioxaphosphinin-6-yl]-2-bromo-6-phenyl-5H-imidazo [1,2-a] purin-9-one], for which the Ki in data set [2] is 35 nM; in data set [3] it was 30 nM; in data set [4] it was 450 nM; in data set [6], more than 50000 nM; in data set [7], 11000 nM; in data set [8], 2500 nM. For the same compound, the inhibition constant Ki turned out to be 800 nM in [9], 8100 nM in data set [10], 4100 nM in data set [11] and 5000 nM in [12]. Moreover, the results for the IC50 in [4] and in data set [5] were 900 nM and 25000 nM, respectively. For the same compound, the “inhibitory constants for CNGC and PKA isoforms 1 and 2 higher than those for PKG isoforms” value in data set [5] (CNGC and PKA1/PKA2 versus PKG isoforms) was 2-3 log units. For the same compound, the “lowest concentration that still reduced the death of rd1 photoreceptor-like cells” value in data set [13] (LP-DF003 dose expressed as corresponding DF003 concentration) amounted to 100 nM. The “protective effect on rd1 photoreceptor-like cells” value in data set [13] (cell culture, FIG. 1A) was “preserved the viability”. The “effect on wild-type photoreceptor-like cells (toxicity)” value in data set [14] is “not affected”. Besides, in data set [15] (FIG. 1B), the “photoreceptor death in rd1 retinal explants” value was “reduced photoreceptor death; also recorded: preserved the viability”. In data set [15] (organotypic retinal explants, data not shown), the “toxicity in the inner retina” value was “no evidence of DF003 toxicity”. Further, the “toxicity in wt retinal explants” value in data set [16] is listed as “no signs of toxicity; also recorded: not affected”. The “photoreceptor death in rd10 retinal explants” value in data set [17] is “prevented photoreceptor death”. Besides, the “photoreceptor death in rd2 retinal explants” value in [18] was “prevented photoreceptor death”. Besides, the rd1 photoreceptor survival result in [19] is given as “did not show any improvement; also recorded: had no effect”. For the same compound, the half-life in [20] is approximately 15 min.

By Ki is commonly meant the equilibrium dissociation constant of an inhibitor or competing ligand from its target. A higher Ki goes with a looser hold on the target. What is called IC50 is the concentration that gives 50% inhibition. What is called half-life is the time needed for the level to fall by half in the phase considered.
